The source of these data is ChEMBL document CHEMBL4433248, “SAR studies in the sulfonyl carboxamide class of HBV capsid assembly modulators” (Bioorg Med Chem Lett, 2019).

A word on the half-life: it is the time needed for the level to fall by half in the phase considered. A higher half-life goes with slow decline. A word on the CC50: it is the concentration that lowers cell viability or growth by half. By logP is commonly meant a log measure of how a compound divides between an organic and an aqueous phase. Usually AUC stands for the area under the concentration-time curve, a measure of exposure. A low value points to low exposure. For orientation: bioavailability means dose-corrected exposure relative to a reference, in per cent. Low readings indicate poor availability, high ones good availability. By Kp is commonly meant tissue or fluid exposure divided by exposure in the circulation.

Some results are limits rather than exact numbers.

A short description of data set [1]: Half life in human hepatocytes. Format: ADME, cell-based, Hepatocyte.
A short description of data set [2]: Cytotoxicity against human HepG2.2.15 cells assessed as reduction in cell viability incubated for 3 days followed by replacement of fresh medium containing compound and measured after 3 days by cell titer glo-based luminescence assay. On the set-up: species or system HepG2 2.2.15. In general terms: ATP-based viability assays read luminescence as a measure of living cells.

A short description of data set [3]: Half life in Mongrel dog at 3 mg/kg, po or 1 mg/kg, iv. It is filed as ADME, organism-based, Canis lupus familiaris. To be noted: in vivo.
Data set [4] can be described thus: Half life in Mongrel dog hepatocytes. Format: ADME, cell-based, Canis lupus familiaris, Hepatocyte.
Data set [5] in a line: Half life in CD1 mouse hepatocytes. Format: ADME, cell-based, Hepatocyte.
Data set [6] in a line: Half life in Sprague-Dawley rat hepatocytes. It is filed as ADME, cell-based, Hepatocyte.
Data set [7] is described as follows: Clearance in CD1 mouse at 10 mg/kg, po or 2 mg/kg, iv. Format: ADME, organism-based. The note with it: in vivo.
Data set [8] can be described thus: Lipophilicity, log P of the compound. Format: physicochemical. The note with it: octanol/water.
Data set [9] is described as follows: Half life in CD1 mouse at 10 mg/kg, po or 2 mg/kg, iv. It is filed as ADME, organism-based. To be noted: in vivo.
Data set [10] in a line: AUC in CD1 mouse plasma at 5 mg/kg. It is filed as ADME, organism-based. The note with it: in vivo.
The nature of data set [11]: Volume of distribution at steady state in CD1 mouse at 10 mg/kg, po or 2 mg/kg, iv. To be noted: in vivo, read-out: Vdss. Format: ADME, organism-based.
A short description of data set [12]: Volume of distribution at steady state in Mongrel dog at 3 mg/kg, po or 1 mg/kg, iv. It is filed as ADME, organism-based, Canis lupus familiaris. To be noted: in vivo, read-out: Vdss.
A short description of data set [13]: AUC in CD1 mouse liver at 5 mg/kg. It is filed as ADME, organism-based. The note with it: in vivo.
The nature of data set [14]: Oral bioavailability in Mongrel dog at 3 mg/kg. To be noted: in vivo. It is filed as ADME, organism-based, Canis lupus familiaris.
Data set [15] is described as follows: Ratio of drug concentration in liver to plasma of CD1 mouse. It is filed as ADME.
Data set [16] is described as follows: Clearance in Mongrel dog at 3 mg/kg, po or 1 mg/kg, iv. It is filed as ADME, organism-based, Canis lupus familiaris. To be noted: in vivo.
The nature of data set [17]: Oral bioavailability in CD1 mouse at 10 mg/kg. It is filed as ADME, organism-based. The note with it: in vivo.
A short description of data set [18]: Solubility of the compound in DMSO. It is filed as physicochemical.
Data set [19] can be described thus: Volume of distribution at steady state in Sprague-Dawley rat at 10 mg/kg, po or 2 mg/kg, iv. It is filed as ADME, organism-based. To be noted: in vivo, read-out: Vdss.
A short description of data set [20]: Half life in Sprague-Dawley rat at 10 mg/kg, po or 2 mg/kg, iv. It is filed as ADME, organism-based. To be noted: in vivo.
For data set [21], the system named is Hepatitis B virus. Briefly: Ratio of EC50 for antiviral activity against Hepatitis B virus infected in human HepG2.2.15 cells in presence of 40% normal human serum to EC50 for antiviral activity against Hepatitis B virus infected in human HepG2.2.15 cells in absence of 40% normal human serum. It is filed as functional.
Data set [22] can be described thus: Stability in human hepatocytes. It is filed as ADME, cell-based, Hepatocyte.
Data set [23] in a line: Clearance in Sprague-Dawley rat at 10 mg/kg, po or 2 mg/kg, iv. It is filed as ADME, organism-based. The note with it: in vivo.
Data set [24] relates to Hepatitis B virus. The experiment in a line: Antiviral activity against Hepatitis B virus infected in naive HBeAg positive patients assessed as log10 reduction in HBV DNA at 600 mg bid. Format: functional.
The nature of data set [25]: Half life in human at 200 mg. It is filed as ADME.

The compound `CC1(O)COCCN(S(=O)(=O)c2cc(C(=O)Nc3ccc(F)c(Cl)c3)ccc2F)C1` (stereo not drawn) showed a half-life in [1] of 1.28 h. Also, the CC50 at 72 h in data set [2] lay in the range of 7.1 to 15 µM.

On to `CN1CCN(S(=O)(=O)c2cc(C(=O)Nc3ccc(F)c(Cl)c3)ccc2F)CC(O)C1` (stereo not drawn), for which, in [2], the cytotoxic concentration (CC50) at 72 h turned out to be 31 µM.

`O=C(Nc1ccc(F)c(Cl)c1)c1ccc(F)c(S(=O)(=O)N2CCCCC(CO)C2)c1` (stereo not drawn): the CC50 at 72 h in [2] worked out at 3.1 µM.

`O=C(Nc1ccc(F)c(Cl)c1)c1ccc(F)c(S(=O)(=O)N2CCCC(O)CC2)c1` (stereo not drawn): the CC50 at 72 h in data set [2] is 29 µM.

Turning to `O=C(Nc1ccc(F)c(Cl)c1)c1ccc(F)c(S(=O)(=O)N2C[C@H](O)CC[C@H](O)C2)c1`, the half-life in data set [3] is 4.6 h; in data set [4], 3.23 h; in data set [5], 3.72 h; in data set [6], 0.467 h; in data set [9] it was 3.2 h; in [1], 8.58 h. Also, the values for the clearance in [7] and in [16] were 34 mL/min/kg and 6.4 mL/min/kg, respectively. The logP in data set [8] (read-out: logP) stood at 2.9. Besides, the figures for the AUC in data set [10] and in data set [13] were 0.73 µM·h and 55.4 µM·h, respectively. Further, the Vd in data set [11] is 4.1 L/kg; in [12], 1.3 L/kg. In addition, the bioavailability in data set [14] turned out to be 22%; in data set [17], 12%. The Kp in [15] is 76.

`O=C(Nc1ccc(F)c(Cl)c1)c1ccc(F)c(S(=O)(=O)N2CCCCC(F)(F)C2)c1`: the CC50 at 72 h in data set [2] was 11 µM.

For `O=C(Nc1ccc(F)c(Cl)c1)c1ccc(F)c(S(=O)(=O)N2CCCCCC(O)C2)c1` (stereo not drawn), the half-life in [1] was 0.267 h. Also, the CC50 at 72 h in data set [2] is 11 µM.

In turn, `O=C(Nc1ccc(F)c(Cl)c1)c1ccc(F)c(S(=O)(=O)N2CCCCC(O)C2)c1` (stereo not drawn) yielded a half-life in data set [1] of 0.817 h. Further, in [2], the CC50 at 72 h came out at 15 µM.

The compound `O=C(Nc1ccc(F)c(Cl)c1)c1ccc(F)c(S(=O)(=O)N2CCOCC(O)C2)c1` (racemic) yielded a half-life in data set [1] of 4.63 h. Besides, the CC50 at 72 h in data set [2] fell in the range of 7.1 to 15 µM.

Regarding `O=C(Nc1ccc(F)c(Cl)c1)c1ccc(F)c(S(=O)(=O)N2CCCCC(O)CC2)c1` (stereo not drawn), the half-life in data set [1] is 0.0833 h. Moreover, the CC50 at 72 h in [2] was determined as 24 µM.

On to `CN1CCCN(S(=O)(=O)c2cc(C(=O)Nc3ccc(F)c(Cl)c3)ccc2F)CC1=O`, for which, in data set [18], the solubility result was “Insoluble”. For the same compound, the CC50 at 72 h in data set [2] is greater than 100 µM.

In the case of `O=C(Nc1ccc(F)c(Cl)c1)c1ccc(F)c(S(=O)(=O)N2CCOC[C@H](O)C2)c1`, the half-life was 4.6 h in [3]; 4.63 h in data set [4]; 0.8 h in data set [5]; 0.6 h in [20]; 0.467 h in data set [6]; 2.6 h in [9]. Moreover, the figures for the Vd in data set [19], in data set [11] and in data set [12] were 3.3 L/kg, 4.1 L/kg and 1.3 L/kg, respectively. The clearance in [7] amounted to 28 mL/min/kg; in [16], 5.4 mL/min/kg; in data set [23] it was 88 mL/min/kg. In addition, the logP in data set [8] (read-out: logP) amounted to 2.6. Further, the “Ratio EC50” value in the data set on Hepatitis B virus [21] is reported as 6. Moreover, the figures for the bioavailability in data set [14] and in data set [17] were 53% and 78%, respectively. The Kp in data set [15] turned out to be 15. The Stability entry in data set [22] is listed as “Stable”. The CC50 at 72 h in data set [2] worked out at 19 µM.

Regarding `COC1COCCN(S(=O)(=O)c2cc(C(=O)Nc3ccc(F)c(Cl)c3)ccc2F)C1` (stereo not drawn), the CC50 at 72 h in data set [2] was determined as 8.7 µM.

For `CC(O)C1CCCCN(S(=O)(=O)c2cc(C(=O)Nc3ccc(F)c(Cl)c3)ccc2F)C1` (stereo not drawn), the CC50 at 72 h in data set [2] worked out at 2.6 µM.

Consider `O=C(Nc1ccc(F)c(Cl)c1)c1ccc(F)c(S(=O)(=O)N2CCSCC(O)C2)c1` (stereo not drawn), for which the CC50 at 72 h in [2] came out at 19 µM.

For `O=C(Nc1ccc(F)c(Cl)c1)c1ccc(F)c(S(=O)(=O)N2CCOCC(F)C2)c1` (stereo not drawn), the CC50 at 72 h in data set [2] was 15 µM.

As to `CC1(O)CCCN(S(=O)(=O)c2cc(C(=O)Nc3ccc(F)c(Cl)c3)ccc2F)CC1` (stereo not drawn), the CC50 at 72 h in [2] is 11 µM.

For `CC1(O)CCCCN(S(=O)(=O)c2cc(C(=O)Nc3ccc(F)c(Cl)c3)ccc2F)C1` (stereo not drawn), the CC50 at 72 h in [2] stood at 10 µM.

On to `O=C(Nc1cc(F)c(F)c(F)c1)c1ccc(F)c(S(=O)(=O)N2CCC(O)CC2)c1`, for which, in [8], the logP came out at 3.2. For the same compound, in the data set with Hepatitis B virus [24], the Activity was determined as 1.7 log10IU/ml. Also, in [25], the half-life lay in the range of 15 to 19 h. Moreover, in [15], the Kp was 6.

As for `O=C(Nc1ccc(F)c(Cl)c1)c1ccc(F)c(S(=O)(=O)N2CCCCCCC2O)c1` (stereo not drawn), the CC50 at 72 h in data set [2] was 7 µM.

Regarding `O=C(Nc1ccc(F)c(Cl)c1)c1ccc(F)c(S(=O)(=O)N2CCOC[C@@H](O)C2)c1`, the CC50 at 72 h in data set [2] stood at 14 µM.
